# Experimental data taken from publication PMC4389225, “Triaminopyrimidine is a fast-killing and long-acting antimalarial clinical candidate” (Nature Communications, 2015).
# Where two headings read alike, the source gives them in different places.
# Tests used:
# [1] = Rat blood PK, IV and oral; type: in vivo; settings: for Vd / half-life / clearance / MRT / bioavailability / AUC(0-inf) / AUC(0-t) / Cmax: rat; for bioavailability / AUC(0-inf) / AUC(0-t) / Cmax: 10 mg/kg
# Protocol: Blood samples were collected at 0.083, 0.25, 0.5, 1, 2, 4, 8, 23, 32, 48, 55 and 72 hours after an IV dose of 2 mg/kg or an oral dose of 10 mg/kg. Oral administration was done using oral gavage at a maximum dose volume of 10 mL/kg. Solution formulation containing 10% NMP, 20% DMA in dextrose / normal saline was used for IV administration and a suspension in 0.5% w/v HPMC with 0.1% v/v Tween 80 was used for oral administration. 25 µl of blood samples were mixed with 100 µL of Milli-Q water and vortexed for 5 minutes in the plate shaker at a speed of 900 rpm to ensure complete hemolysis. Proteins were precipitated by adding 125 µL of cold acetonotrile containing internal standard. After extraction on a plate shaker for 10 minutes at 900 rpm, the plate was centrifuged at 4000 rpm for 20 minutes. The supernatant (180 µL) was transferred to another plate and 2.5 µL of Zinc sulphate (200 mM) was added to separate the heme fraction. This mixture was centrifuged and 10 µL of the supernatant was analyzed by LC-MS/MS. […]
# [2] = system: PfATP4 Cpd 2; experiment: [3H]-hypoxanthine incorporation assay, PfATP4 Cpd 2 resistant; type: cell-based; settings: Plasmodium falciparum
# Protocol: Supplementary Table 3: Compound 9 and 12 retain their activity against Pf strains harbouring mutations to novel antimalarial agents in clinical development. Compound 9 and 12 were tested for their antiplasmodial activity against a panel of Pf strains known to harbour mutations conferring resistance to novel agents under clinical development. Parasite growth inhibition is measured using the [3H]-hypoxanthine incorporation assay. IC50s are established for each strain (n ≥2) and compared to the IC50 of Dd2 (standard pan-resistant […]
# [3] = 3-day rat toxicity (tolerability) study of compound 12; type: in vivo; settings: for Summary of clinical signs and effects: NOEL = no observed effect level
# Protocol: Two groups of male rats (n=3, Han Wistar) were obtained from Charles River Laboratories, UK. Animals were group housed for ~1 week before the initiation of dosing. On the first day of dosing, rats were ~11 weeks of age and weighed 250–300 g and received compound 12 via oral gavage at dose levels of 75 or 150 mg kg^−1 for three consecutive days and necropsied 24 h after the final dose. Vehicle: 1% pluronic F127; dose volume: 10 ml kg^−1. In addition to regular monitoring of the animals' general condition, toxicokinetic profiles were obtained on day 1 and clinical chemistry, haematology and histopathology were assessed from all animals on day 4. Female animals were not included in the study as sex differences in either exposure or tolerability were not expected and control animals were excluded from this preliminary study design to reduce animal usage. Body weights were collected during acclimation and before each dose. Food and water consumption were available ad libitum but not recorded.
# Toxicokinetic profiles were obtained on day 1 from all animals (time points: 0.5, 1, 2, 4, 6 and 24 h post dose) via microsample tail prick (32 μl blood) and were analysed using a qualified analytical procedure. Clinical pathology blood samples were taken at necropsy (24 h after third and final dose) from all animals, and analysed following a routine toxicological parameter list. Urinalysis was not performed.
# [4] = Wistar, whole blood, po, Oral 10 mg kg-1, Mean
# [5] = Wistar, whole blood, po, Oral 10 mg kg-1, Rat 1
# [6] = Wistar, whole blood, po, Oral 10 mg kg-1, Rat 2
# [7] = Wistar, whole blood, po, Oral 10 mg kg-1, Rat 3
smiles,measurement,setting,value
"Cc1nc(Nc2ncc(N3CCN(C)[C@H](C)C3)c(Nc3cc(C)n(C)n3)n2)cc(C2CC2)c1F [compound 12, (R)-N2-(4-cyclopropyl-5-fluoro-6-methylpyridin-2-yl)-N4-(1,5-dimethyl-1H-pyrazol-3-yl)-5-(3,4-dimethylpiperazin-1-yl)pyrimidine-2,4-diamine]",Vd,"[1]; Wistar (rat), Beagle (dog), whole blood (rat), plasma (dog), intravenous, 2 mg/kg, rat and dog, read-out: volume of distribution (Vss)",10 to 20 L/kg
same,half-life,"[1]; Wistar (rat), Beagle (dog), whole blood (rat), plasma (dog), iv, 2 mg/kg, intravenous PK, rat and dog, read-out: half-life",11 to 13 h
same,half-life,"[1]; Wistar (rat), Beagle (dog), whole blood (rat), plasma (dog), po, oral PK study, rat and dog, read-out: half-life",14 to 16 h
same,clearance,"[1]; Wistar, blood, iv, 2 mg/kg, Rat, read-out: Observed blood CL",5 to 13 mL/min/kg
same,MRT,"[1]; Wistar, whole blood, iv, 2 mg/kg, IV 2 mg kg-1, Mean",15.7 h
same,clearance,"[1]; Wistar, whole blood, iv, 2 mg/kg, IV 2 mg kg-1, Mean, read-out: CL",9.2 mL/min/kg
same,Vd,"[1]; Wistar, whole blood, iv, 2 mg/kg, IV 2 mg kg-1, Mean, read-out: Vss",7.7 L/kg
same,half-life,"[1]; Wistar, whole blood, iv, 2 mg/kg, IV 2 mg kg-1, Mean, read-out: t½ (converted)",15.2 h
same,MRT,"[1]; Wistar, whole blood, iv, 2 mg/kg, IV 2 mg kg-1, Rat 1",11.8 h
same,clearance,"[1]; Wistar, whole blood, iv, 2 mg/kg, IV 2 mg kg-1, Rat 1, read-out: CL",13.1 mL/min/kg
same,Vd,"[1]; Wistar, whole blood, iv, 2 mg/kg, IV 2 mg kg-1, Rat 1, read-out: Vss",9.3 L/kg
same,half-life,"[1]; Wistar, whole blood, iv, 2 mg/kg, IV 2 mg kg-1, Rat 1, read-out: t½ (converted)",13.5 h
same,MRT,"[1]; Wistar, whole blood, iv, 2 mg/kg, IV 2 mg kg-1, Rat 2",22.6 h
same,clearance,"[1]; Wistar, whole blood, iv, 2 mg/kg, IV 2 mg kg-1, Rat 2, read-out: CL",4.8 mL/min/kg
same,Vd,"[1]; Wistar, whole blood, iv, 2 mg/kg, IV 2 mg kg-1, Rat 2, read-out: Vss",6.6 L/kg
same,half-life,"[1]; Wistar, whole blood, iv, 2 mg/kg, IV 2 mg kg-1, Rat 2, read-out: t½ (converted)",19.2 h
same,MRT,"[1]; Wistar, whole blood, iv, 2 mg/kg, IV 2 mg kg-1, Rat 3",12.6 h
same,clearance,"[1]; Wistar, whole blood, iv, 2 mg/kg, IV 2 mg kg-1, Rat 3, read-out: CL",9.6 mL/min/kg
same,Vd,"[1]; Wistar, whole blood, iv, 2 mg/kg, IV 2 mg kg-1, Rat 3, read-out: Vss",7.2 L/kg
same,half-life,"[1]; Wistar, whole blood, iv, 2 mg/kg, IV 2 mg kg-1, Rat 3, read-out: t½ (converted)",13 h
same,bioavailability,"[1]; Wistar, whole blood, oral, read-out: Rat F (bioavailability)",80%
same,AUC(0-inf),[1]; [4],35.8 µM·h
same,AUC(0-t),[1]; [4],34.7 µM·h
same,Cmax,[1]; [4],2000 nM
same,bioavailability,"[1]; Wistar, whole blood, po, Oral 10 mg kg-1, Mean, read-out: F",90%
same,AUC(0-inf),[1]; [5],33.1 µM·h
same,AUC(0-t),[1]; [5],31.8 µM·h
same,Cmax,[1]; [5],1710 nM
same,bioavailability,"[1]; Wistar, whole blood, po, Oral 10 mg kg-1, Rat 1, read-out: F",121%
same,AUC(0-inf),[1]; [6],38.4 µM·h
same,AUC(0-t),[1]; [6],37.2 µM·h
same,Cmax,[1]; [6],2210 nM
same,bioavailability,"[1]; Wistar, whole blood, po, Oral 10 mg kg-1, Rat 2, read-out: F",52%
same,AUC(0-inf),[1]; [7],36 µM·h
same,AUC(0-t),[1]; [7],35.1 µM·h
same,Cmax,[1]; [7],1990 nM
same,bioavailability,"[1]; Wistar, whole blood, po, Oral 10 mg kg-1, Rat 3, read-out: F",96%
same,Tmax,"[1]; Wistar, whole blood, Oral 10 mg kg-1, Rat 1",4 h
same,CL,[1]; rat and dog,< 35 % liver blood flow
same,IC50,[2],8.1 nM
same,A—plasma Cmax free,[3]; 75 mg kg^−1 per day oral,110 nM
same,Safety margin (A/B)-free Cmax,[3]; 75 mg kg^−1 per day oral,12.6
same,Summary of clinical signs and effects,[3]; 75 mg kg^−1 per day oral,NOEL
same,A—plasma Cmax free,[3]; 150 mg kg^−1 per day oral,130 nM
same,Safety margin (A/B)-free Cmax,[3]; 150 mg kg^−1 per day oral,15
same,Summary of clinical signs and effects,[3]; 150 mg kg^−1 per day oral,NOEL
same,clinical pathology and histopathology findings,"[3]; 75 or 150 mg kg^−1 oral, three days",no findings considered related to treatment
